Laboratory results: the OligoGym collection
HELM strings list units from the 5' end as sugar, base in round brackets, then linkage (d deoxyribose, r ribose, m 2'-O-methyl, p phosphodiester). Strings are as the collection lists them, not checked against the first reports. ss, as = sense and antisense strand; [lna] = locked nucleic acid (LNA); [s4r] = 4'-thioribose; [fl2r] = 2'-fluoro

Conditions: siRNA
Also: test system not given here.

Substance	target mRNA knockdown [%]
RNA1{r(G)p.r(G)p.r(C)p.r(G)p.r(G)p.r(G)p.r(C)p.r(U)p.r(C)p.r(U)p.r(U)p.r(U)p.r(C)p.r(C)p.m(U)p.r(A)p.r(U)p.r(U)p.r(C)p.r(T)p.r(T)}|RNA2{r(G)p.r(A)p.r(A)p.m(U)p.r(A)p.r(G)p.r(G)p.r(A)p.r(A)p.r(A)p.r(G)p.r(A)p.r(G)p.r(C)p.r(C)p.r(C)p.r(G)p.r(C)p.r(C)p.r(T)p.r(T)}$$$RNA1{StrandType:ss}|RNA2{StrandType:as}$	69
RNA1{[lna](T)p.r(C)p.r(C)p.r(A)p.r(G)p.r(A)p.r(A)p.r(C)p.r(A)p.r(A)p.r(A)p.r(G)p.r(G)p.r(A)p.r(A)p.r(A)p.r(C)p.r(G)p.r(G)p.[lna](T)p.[lna](T)}|RNA2{r(C)p.r(C)p.r(G)p.r(U)p.r(U)p.r(U)p.r(C)p.r(C)p.r(U)p.r(U)p.r(U)p.r(G)p.r(U)p.r(U)p.r(C)p.r(U)p.r(G)p.r(G)p.r(A)p.r(T)p.r(T)}$$$RNA1{StrandType:ss}|RNA2{StrandType:as}$	50
RNA1{r(A)p.r(A)p.r(A)p.r(C)p.r(C)p.r(C)p.r(C)p.m(U)p.r(A)p.r(G)p.r(A)p.r(G)p.r(G)p.r(G)p.r(C)p.r(A)p.r(A)p.r(G)p.r(U)p.r(T)p.r(T)}|RNA2{r(A)p.r(C)p.r(U)p.r(U)p.r(G)p.r(C)p.r(C)p.r(C)p.r(U)p.r(C)p.m(U)p.r(A)p.r(G)p.r(G)p.r(G)p.r(G)p.r(U)p.r(U)p.r(U)p.r(T)p.r(T)}$$$RNA1{StrandType:ss}|RNA2{StrandType:as}$	75
RNA1{r(A)p.r(A)p.m(C)p.r(A)p.r(G)p.r(C)p.r(C)p.r(U)p.m(U)p.r(A)p.r(C)p.r(C)p.r(C)p.r(C)p.r(G)p.r(A)p.r(U)p.r(U)p.r(C)p.r(T)p.r(T)}|RNA2{r(G)p.r(A)p.r(A)p.r(U)p.r(C)p.r(G)p.r(G)p.r(G)p.r(G)p.m(U)p.r(A)p.r(A)p.r(G)p.r(G)p.r(C)p.m(U)p.r(G)p.r(U)p.r(U)p.r(T)p.r(T)}$$$RNA1{StrandType:ss}|RNA2{StrandType:as}$	68
RNA1{r(G)p.m(C)p.r(A)p.r(G)p.r(C)p.r(A)p.r(C)p.r(G)p.r(A)p.r(C)p.r(U)p.r(U)p.r(C)p.r(U)p.r(U)p.r(C)p.r(A)p.r(A)p.r(G)p.r(U)p.r(U)}|RNA2{r(U)p.[fl2r](U)p.r(C)p.r(G)p.r(U)p.r(C)p.r(G)p.r(U)p.r(G)p.r(C)p.r(U)p.r(G)p.r(A)p.r(A)p.r(G)p.r(A)p.r(A)p.r(G)p.r(U)p.r(U)p.r(C)}$$$RNA1{StrandType:ss}|RNA2{StrandType:as}$	77.2
RNA1{[fl2r](U)p.r(A)p.r(A)p.r(C)p.r(C)p.r(C)p.[fl2r](C)p.r(A)p.r(A)p.r(G)p.r(A)p.r(A)p.[fl2r](C)p.r(G)p.r(G)p.r(G)p.r(C)p.r(U)p.r(U)p.r(T)p.r(T)}|RNA2{r(A)p.r(A)p.r(G)p.r(C)p.r(C)p.r(C)p.[fl2r](G)p.r(U)p.r(U)p.r(C)p.r(U)p.[fl2r](U)p.r(G)p.r(G)p.r(G)p.r(G)p.r(U)p.[fl2r](U)p.r(A)p.r(T)p.r(T)}$$$RNA1{StrandType:ss}|RNA2{StrandType:as}$	72
RNA1{[s4r](A)p.[s4r](A)p.r(A)p.r(C)p.r(A)p.r(U)p.r(G)p.r(C)p.r(A)p.r(G)p.r(A)p.r(A)p.r(A)p.r(A)p.r(U)p.r(G)p.r(C)p.r(U)p.r(G)p.r(T)p.r(T)}|RNA2{r(C)p.r(A)p.r(G)p.r(C)p.r(A)p.r(U)p.r(U)p.r(U)p.r(U)p.r(C)p.r(U)p.r(G)p.r(C)p.r(A)p.r(U)p.r(G)p.r(U)p.[s4r](U)p.[s4r](U)p.r(T)p.r(T)}$$$RNA1{StrandType:ss}|RNA2{StrandType:as}$	72.4
RNA1{r(C)p.r(U)p.r(U)p.r(A)p.r(C)p.r(G)p.r(C)p.r(U)p.r(G)p.r(A)p.r(G)p.r(U)p.r(A)p.r(C)p.r(U)p.r(U)p.r(C)p.r(G)p.r(A)p.r(T)p.r(T)}|RNA2{r(U)p.[lna](C)p.r(G)p.r(A)p.r(A)p.r(G)p.r(U)p.r(A)p.r(C)p.r(U)p.r(C)p.r(A)p.r(G)p.r(C)p.r(G)p.r(U)p.r(A)p.r(A)p.r(G)p.r(T)p.r(T)}$$$RNA1{StrandType:ss}|RNA2{StrandType:as}$	0
RNA1{r(C)p.r(U)p.r(C)p.r(U)p.r(C)p.r(C)p.[fl2r](U)p.r(A)p.r(C)p.r(C)p.r(U)p.[fl2r](U)p.r(C)p.r(U)p.r(C)p.r(C)p.[fl2r](U)p.r(C)p.r(U)p.r(T)p.r(T)}|RNA2{r(A)p.r(G)p.r(A)p.r(G)p.r(G)p.r(A)p.r(G)p.r(A)p.r(A)p.r(G)p.r(G)p.[fl2r](U)p.r(A)p.r(G)p.r(G)p.r(A)p.r(G)p.r(A)p.r(G)p.r(T)p.r(T)}$$$RNA1{StrandType:ss}|RNA2{StrandType:as}$	73
RNA1{r(G)p.r(G)p.r(A)p.r(G)p.m(C)p.r(A)p.r(C)p.r(G)p.r(C)p.r(U)p.m(U)p.r(A)p.r(C)p.m(U)p.r(A)p.r(C)p.r(C)p.r(U)p.r(U)p.r(T)p.r(T)}|RNA2{r(A)p.r(A)p.r(G)p.r(G)p.m(U)p.r(A)p.r(G)p.m(U)p.r(A)p.r(A)p.r(G)p.r(C)p.r(G)p.m(U)p.r(G)p.r(C)p.r(U)p.r(C)p.r(C)p.r(T)p.r(T)}$$$RNA1{StrandType:ss}|RNA2{StrandType:as}$	68
RNA1{r(A)p.r(U)p.r(C)p.r(G)p.r(A)p.r(C)p.r(C)p.m(U)p.r(G)p.r(A)p.r(A)p.r(G)p.r(G)p.r(A)p.r(G)p.m(U)p.r(A)p.r(C)p.r(G)p.r(T)p.r(T)}|RNA2{r(C)p.r(G)p.m(U)p.r(A)p.r(C)p.r(U)p.r(C)p.r(C)p.r(U)p.r(U)p.r(C)p.r(A)p.r(G)p.r(G)p.r(U)p.r(C)p.r(G)p.r(A)p.r(U)p.r(T)p.r(T)}$$$RNA1{StrandType:ss}|RNA2{StrandType:as}$	30
RNA1{r(G)p.r(C)p.[fl2r](U)p.r(A)p.r(C)p.r(C)p.r(G)p.[fl2r](C)p.r(A)p.r(A)p.r(C)p.[fl2r](C)p.r(A)p.r(C)p.r(G)p.r(A)p.r(G)p.r(C)p.r(U)p.r(T)p.r(T)}|RNA2{r(A)p.r(G)p.r(C)p.r(U)p.r(C)p.r(G)p.[fl2r](U)p.r(G)p.r(G)p.r(U)p.[fl2r](U)p.r(G)p.r(C)p.r(G)p.r(G)p.[fl2r](U)p.r(A)p.r(G)p.r(C)p.r(T)p.r(T)}$$$RNA1{StrandType:ss}|RNA2{StrandType:as}$	42
RNA1{r(C)p.r(C)p.r(G)p.r(C)p.r(C)p.r(C)p.r(G)p.r(G)p.r(C)p.r(G)p.r(G)p.r(C)p.r(G)p.r(C)p.r(C)p.r(U)p.r(U)p.r(U)p.m(A)p.r(T)p.r(T)}|RNA2{m(U)p.m(A)p.r(A)p.r(A)p.r(G)p.r(G)p.r(C)p.r(G)p.r(C)p.r(C)p.r(G)p.r(C)p.r(C)p.r(G)p.r(G)p.r(G)p.r(C)p.r(G)p.r(G)p.r(T)p.r(T)}$$$RNA1{StrandType:ss}|RNA2{StrandType:as}$	82
RNA1{r(G)p.r(A)p.r(A)p.m(U)p.r(A)p.r(A)p.r(C)p.r(C)p.r(U)p.r(G)p.r(A)p.r(A)p.r(C)p.r(G)p.r(U)p.m(C)p.r(A)p.r(C)p.r(C)p.r(T)p.r(T)}|RNA2{r(G)p.r(G)p.r(U)p.r(G)p.r(A)p.r(C)p.r(G)p.r(U)p.r(U)p.m(C)p.r(A)p.r(G)p.r(G)p.r(U)p.r(U)p.r(A)p.r(U)p.r(U)p.r(C)p.r(T)p.r(T)}$$$RNA1{StrandType:ss}|RNA2{StrandType:as}$	71
